According to PMC7177849, “Gut Microbial Catabolites of Tryptophan Are Ligands and Agonists of the Aryl Hydrocarbon Receptor: A Detailed Characterization” (International Journal of Molecular Sciences, 2020):
Where “and” joins values, the source holds several entries; their conditions need not be identical. Equal entries are not always repeated. Where two headings read alike, the source gives them in different places.

How the values were obtained:
Assay type in all cases: cell-based
AhR-ARNT heterodimer = molecular target: T1, AhR-ARNT heterodimer (Homo sapiens, UniProt P35869); assay: Protein co-immunoprecipitation, formation of AhR-ARNT heterodimer in LS180 cells; details: 90 min
T1 construct: 0.1% V/V) for 90 min at 37 °C; host or cells: LS180 cells
T1 sequence (P27540 whole entry partner, one chain of several): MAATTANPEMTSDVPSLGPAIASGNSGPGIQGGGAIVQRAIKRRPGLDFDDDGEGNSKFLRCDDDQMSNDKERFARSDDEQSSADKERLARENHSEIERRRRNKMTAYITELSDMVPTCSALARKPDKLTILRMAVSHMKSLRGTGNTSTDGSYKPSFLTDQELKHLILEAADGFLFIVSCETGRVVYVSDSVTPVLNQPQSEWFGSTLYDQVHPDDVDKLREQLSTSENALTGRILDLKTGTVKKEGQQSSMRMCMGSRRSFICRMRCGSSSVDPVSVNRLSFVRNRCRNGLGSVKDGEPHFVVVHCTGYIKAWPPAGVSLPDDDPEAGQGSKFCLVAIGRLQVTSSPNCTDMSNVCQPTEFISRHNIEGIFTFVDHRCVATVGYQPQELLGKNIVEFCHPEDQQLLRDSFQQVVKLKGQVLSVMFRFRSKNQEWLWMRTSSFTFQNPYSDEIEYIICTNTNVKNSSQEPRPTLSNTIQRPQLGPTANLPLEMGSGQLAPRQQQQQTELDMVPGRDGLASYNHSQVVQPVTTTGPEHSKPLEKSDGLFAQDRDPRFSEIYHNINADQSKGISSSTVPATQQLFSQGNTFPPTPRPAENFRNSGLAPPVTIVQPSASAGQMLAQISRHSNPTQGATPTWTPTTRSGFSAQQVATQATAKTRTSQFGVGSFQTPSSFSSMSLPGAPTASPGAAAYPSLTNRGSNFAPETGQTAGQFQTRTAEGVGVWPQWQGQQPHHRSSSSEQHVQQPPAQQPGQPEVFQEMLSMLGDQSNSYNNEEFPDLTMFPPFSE
Method: Figure 6 MICTs induce a formation of the AhR-ARNT heterodimer. Intestinal LS180 cells were incubated with TCDD, tested MICT, and vehicle (DMSO; 0.1% V/V) for 90 min. Protein co-immunoprecipitation of ARNT was carried out, as described in the Methods section. The representative immunoblots of immuno-precipitated protein eluates and total cell lysates are shown. The experiments were performed in two consecutive cell passages.
(§1) Intestinal LS180 cells were incubated with TCDD, tested MICT, and vehicle (DMSO; 0.1% V/V) for 90 min at 37 °C. The Pierce™ Co-Immunoprecipitation Kit (Thermo Fisher Scientific) with covalently coupled AhR antibody (mouse monoclonal, sc-133088, A-3, Santa Cruz Biotechnology) was used. Eluted protein complexes and total parental lysates were resolved on SDS-PAGE gels followed by Western Blot analysis and immuno-detection with ARNT-1 antibody (mouse monoclonal, sc-17812, G-3, Santa Cruz Biotechnology). Chemiluminescent detection was performed using horseradish peroxidase-conjugated anti-mouse secondary antibody (7076S, Cell Signaling Technology) and WesternSure® PREMIUM Chemiluminescent Substrate (LI-COR Biotechnology) by C-DiGit® Blot Scanner (LI-COR Biotechnology).

AhR [1] = molecular target: T2, AhR (Homo sapiens, UniProt P35869); assay: Immunofluorescence detection of nuclear translocation of the AhR in LS180 cells; set-up: 0.1% V/V), TCDD (10 nM), and test MICT; host or cells: LS180 cells
T2 sequence (P35869 11-848): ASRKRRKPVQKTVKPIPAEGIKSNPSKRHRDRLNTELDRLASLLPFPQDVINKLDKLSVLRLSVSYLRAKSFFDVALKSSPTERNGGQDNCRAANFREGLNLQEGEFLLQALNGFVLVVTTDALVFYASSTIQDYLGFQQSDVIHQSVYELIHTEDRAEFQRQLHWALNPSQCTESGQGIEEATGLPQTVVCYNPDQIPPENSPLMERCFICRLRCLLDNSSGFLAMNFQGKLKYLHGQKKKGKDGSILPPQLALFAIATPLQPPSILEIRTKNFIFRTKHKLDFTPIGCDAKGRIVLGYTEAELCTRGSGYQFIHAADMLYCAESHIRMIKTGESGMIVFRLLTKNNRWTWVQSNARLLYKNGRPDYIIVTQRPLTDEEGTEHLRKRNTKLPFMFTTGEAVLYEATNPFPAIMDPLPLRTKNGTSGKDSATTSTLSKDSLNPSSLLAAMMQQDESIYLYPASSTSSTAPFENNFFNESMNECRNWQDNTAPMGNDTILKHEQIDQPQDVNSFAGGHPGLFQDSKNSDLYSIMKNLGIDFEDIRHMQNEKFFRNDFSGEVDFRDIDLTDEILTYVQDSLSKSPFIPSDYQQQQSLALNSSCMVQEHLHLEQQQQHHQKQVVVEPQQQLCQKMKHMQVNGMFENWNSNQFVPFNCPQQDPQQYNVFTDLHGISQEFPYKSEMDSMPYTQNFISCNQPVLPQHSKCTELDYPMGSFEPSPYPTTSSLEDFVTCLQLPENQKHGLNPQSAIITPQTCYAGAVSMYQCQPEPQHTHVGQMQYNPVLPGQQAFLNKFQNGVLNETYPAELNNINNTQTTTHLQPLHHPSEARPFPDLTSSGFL
Method: Figure 5 Effect of MICT on nuclear translocation of the AhR. LS180 cells were incubated for 90 min with vehicle (DMSO; 0.1% V/V), TCDD (10 nM), and test MICT. The experiments were performed in three consecutive cell passages with all tested compounds in duplication. Fluorescence images depict sub-cellular localization of AhR (upper panels) and nuclear staining by DAPI (lower panels). Representative micrographs are shown.
(§2) LS180 cells (60,000 cells/well) were plated on 8-well chambered slides (94.6140.802, Sarstedt, Nümbrecht, Germany) and allowed to grow overnight. Then, the cells were incubated with DMSO (0.1% V/V), TCDD (10 nM), IND (1000 µM), IPY (200 µM), 3MI (200 µM), TA (200 µM), IAC (100 µM), and IAD (200 µM). The staining procedure was described in detail elsewhere. The images were captured using an IX73 fluorescence microscope (Olympus, Tokyo, Japan). The immunofluorescence signal intensity (of the AhR antibody) in the nucleus was evaluated visually. For percentage calculation, approximately 500 cells from at least four randomly selected fields of view in each specimen were used.
Suppl. Table 1. Nuclear translocation of AhR – quantification of immunofluorescence.
LS180 cells were incubated for 90 min with MICT , vehicle or TCDD. Intracellular AhR was visualized with Alexa Fluor 488 labelled primary antibody. The whole staining protocol was performed in three independent experiments in technical duplicates. The AhR translocation was evaluated visually depending on the distinct signal intensity of AhR antibody in the nucleus and cytosol. For percentage calculation, approximately one hundred cells from at least four randomly selected fields of view in each

AhR [2] = molecular target: T2, AhR; assay: Summary of AhR cell functions (translocation; heterodimerization; DNA-binding) in LS180 cells; set-up: 0.1% V/V), TCDD (10 nM), and test MICT; host or cells: LS180 cells; details: Table 1 summary class
Method: as §2
LS180 cells (4 million) were seeded in a 60-mm dish in Dulbecco’s modified Eagle’s medium (D6546; Sigma Aldrich). The following day, the cells were incubated with DMSO (0.1% V/V), TCDD (10 nM), IND (1000 µM), IPY (200 µM), 3MI (200 µM), TA (200 µM), IAC (100 µM), and IAD (200 µM) for 90 min at 37 °C. ChIP assay was performed as we described in detail elsewhere.
as §1

[3] = LS180, 90 min, exp 1, TCDD 10 nM, Indole 1 mM, IAC 100 µM, others 200 µM
[4] = LS180, 90 min, exp 2, TCDD 10 nM, Indole 1 mM, IAC 100 µM, others 200 µM
[5] = LS180, 90 min, exp 3, TCDD 10 nM, Indole 1 mM, IAC 100 µM, others 200 µM
[6] = mean ± SD, n = 3, relative to TCDD-treated cells, LS180, 90 min
[7] = relative to TCDD-treated cells, LS180, 90 min, exp 1, same concentrations
[8] = relative to TCDD-treated cells, LS180, 90 min, exp 2, same concentrations
[9] = relative to TCDD-treated cells, LS180, 90 min, exp 3, same concentrations

| Compound | formation of AhR-ARNT heterodimer (AhR-ARNT heterodimer) | % positive AhR nuclei (AhR [1]; [3]) [%] | % positive AhR nuclei (AhR [1]; [4]) [%] | % positive AhR nuclei (AhR [1]; [5]) [%] | Ø AhR positive nuclei (AhR [1]; [6]) [%] | % relative AhR nuclei (AhR [1]; [7]) [%] | % relative AhR nuclei (AhR [1]; [8]) [%] | % relative AhR nuclei (AhR [1]; [9]) [%] | AhR Cell Functions (Translocation); Heterodimerization; DNA-Binding (AhR [2]) | % positive AhR nuclei (AhR [1]) | % relative AhR nuclei (AhR [1]) | Ø AhR positive nuclei (AhR [1]) [%] |
| --- | --- | --- | --- | --- | --- | --- | --- | --- | --- | --- | --- | --- |
| Cc1c[nH]c2ccccc12 [3MI, skatole] | induce a formation of AhR-ARNT heterodimer | 65 | 72 | 62 | 105 ± 13.8 | 120 | 94 | 102 | highly active–all parameters |  |  |  |
| O=C(O)/C=C/c1c[nH]c2ccccc12 [IAC, indole-3-acrylate] | induce a formation of AhR-ARNT heterodimer | 51 | 61 | 73 | 98 ± 20.4 | 94 | 79 | 120 | highly active–all parameters |  |  |  |
| NC(=O)Cc1c[nH]c2ccccc12 [IAD, indole-3-acetamide] | induce a formation of AhR-ARNT heterodimer | 46 | 73 | 42 | 83 ± 13.1 | 85 | 95 | 69 | highly active–all parameters |  |  |  |
| c1ccc2[nH]ccc2c1 [IND, indole] | induce a formation of AhR-ARNT heterodimer |  |  |  |  |  |  |  | highly active–all parameters | 61% and 73% and 65% | 113% and 95% and 107% | 105 ± 9.2 |
| O=C(O)C(=O)Cc1c[nH]c2ccccc12 [IPY, indole-3-pyruvate] | induce a formation of AhR-ARNT heterodimer | 42 | 60 | 38 | 73 ± 9.0 | 78 | 78 | 62 | highly active–all parameters |  |  |  |
| NCCc1c[nH]c2ccccc12 [TA, tryptamine] | induce a formation of AhR-ARNT heterodimer | 44 | 65 | 66 | 91 ± 14.6 | 81 | 84 | 108 | highly active–all parameters |  |  |  |
| Clc1cc2c(cc1Cl)Oc1cc(Cl)c(Cl)cc1O2 [TCDD, 2,3,7,8-tetrachlorodibenzo-p-dioxin, reference compound] |  | 54 | 77 | 61 |  |  |  |  |  |  |  |  |
